Results: US20260125360A1, “HERBICIDAL IMIDAZOLE COMPOUNDS” (SYNGENTA CROP PROTECTION AG, priority 2022, published 2026)

Assays:
Type in all cases: in vivo
Conditions in all cases: 250 g/ha, evaluated after 13 days
[1] = test system: Amaranthus palmeri (AMAPA); assay: Post-emergence herbicide glasshouse test
Procedure, shortened: (§1)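 Percentage plant damage, rated on a five-point scale (5=81-100%; 1=0-20%), is assessed 13 days after treatment. Sprays are applied at 250 g/ha unless otherwise stated, one day after sowing for pre-emergence and eight days after for post-emergence, from acetone/water (50:50) containing 0.5% Tween 20.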

[2] = test system: Amaranthus retoflexus (AMARE); assay: Post-emergence herbicide glasshouse test
Procedure, shortened: as §1

[3] = test system: Echinochloa crus-galli (ECHCG); assay: Post-emergence herbicide glasshouse test
Procedure, shortened: as §1

[4] = test system: Ipomoea hederacea (IPOHE); assay: Post-emergence herbicide glasshouse test
Procedure, shortened: as §1

[5] = test system: Amaranthus palmeri (AMAPA); assay: Pre-emergence herbicide glasshouse test
Procedure, shortened: as §1

[6] = test system: Amaranthus retoflexus (AMARE); assay: Pre-emergence herbicide glasshouse test
Procedure, shortened: as §1

[7] = test system: Echinochloa crus-galli (ECHCG); assay: Pre-emergence herbicide glasshouse test
Procedure, shortened: as §1

[8] = test system: Ipomoea hederacea (IPOHE); assay: Pre-emergence herbicide glasshouse test
Procedure, shortened: as §1

| SMILES | percentage damage caused to the plant, AMAPA (five-point scale) [1] | percentage damage caused to the plant, AMARE (five-point scale) [2] | percentage damage caused to the plant, ECHCG (five-point scale) [3] | percentage damage caused to the plant, IPOHE (five-point scale) [4] | percentage damage caused to the plant, AMAPA (five-point scale) [5] | percentage damage caused to the plant, AMARE (five-point scale) [6] | percentage damage caused to the plant, ECHCG (five-point scale) [7] | percentage damage caused to the plant, IPOHE (five-point scale) [8] |
| --- | --- | --- | --- | --- | --- | --- | --- | --- |
| Cc1cc(Cn2cc(C(F)(F)F)nc2-c2cnc(F)c(Cl)c2)no1 [Compound 1.163] | 5 (5=81-100%) | 5 (5=81-100%) | 5 (5=81-100%) | 4 (4=61-80%) | 5 (5=81-100%) | 5 (5=81-100%) | 5 (5=81-100%) | 5 (5=81-100%) |
| Cc1nnc(Cn2cc(C(F)(F)F)nc2-c2cnc(F)c(Cl)c2)s1 [Compound 1.164] | 4 (4=61-80%) | 5 (5=81-100%) | 2 (2=21-40%) | 3 (3=41-60%) | 5 (5=81-100%) | 5 (5=81-100%) | 4 (4=61-80%) | 5 (5=81-100%) |
| Cn1cnc(Cn2cc(C(F)(F)F)nc2-c2cnc(F)c(Cl)c2)n1 [Compound 1.165] | 5 (5=81-100%) | 5 (5=81-100%) | 5 (5=81-100%) | 5 (5=81-100%) | 5 (5=81-100%) | 5 (5=81-100%) | 5 (5=81-100%) | 5 (5=81-100%) |
| Cc1noc(Cn2cc(C(F)(F)F)nc2-c2cnc(Cl)c(F)c2)n1 [Compound 1.166] | 4 (4=61-80%) | 4 (4=61-80%) | 1 (1=0-20%) | 2 (2=21-40%) | 5 (5=81-100%) | 5 (5=81-100%) | 1 (1=0-20%) | 5 (5=81-100%) |
| Cc1nc(Cn2cc(C(F)(F)F)nc2-c2cnc(Cl)c(F)c2)no1 [Compound 1.167] | 5 (5=81-100%) | 5 (5=81-100%) | 5 (5=81-100%) | 4 (4=61-80%) | 5 (5=81-100%) | 5 (5=81-100%) | 5 (5=81-100%) | 5 (5=81-100%) |
| Cc1nc(Cn2cc(C(F)(F)F)nc2-c2ccc(F)c(F)c2)no1 [Compound 1.168] | 5 (5=81-100%) | 5 (5=81-100%) | 5 (5=81-100%) | 5 (5=81-100%) | 5 (5=81-100%) | 5 (5=81-100%) | 5 (5=81-100%) | 5 (5=81-100%) |
| Cc1noc(Cn2cc(C(F)(F)F)nc2-c2ccc(F)c(F)c2)n1 [Compound 1.169] | 5 (5=81-100%) | 5 (5=81-100%) | 3 (3=41-60%) | 3 (3=41-60%) | 5 (5=81-100%) | 5 (5=81-100%) | 4 (4=61-80%) | 5 (5=81-100%) |
| Cn1cnc(Cn2cc(C(F)(F)F)nc2-c2ccc(S(C)(=O)=O)cc2)n1 [Compound 1.170] | 5 (5=81-100%) | 5 (5=81-100%) | 2 (2=21-40%) | 3 (3=41-60%) | 5 (5=81-100%) | 5 (5=81-100%) | 4 (4=61-80%) | 5 (5=81-100%) |
| Cn1ccc(Cn2cc(C(F)(F)F)nc2-c2ccc(S(C)(=O)=O)cc2)n1 [Compound 1.171] | 1 (1=0-20%) | 1 (1=0-20%) | 1 (1=0-20%) | 2 (2=21-40%) | 4 (4=61-80%) | 4 (4=61-80%) | 1 (1=0-20%) | 3 (3=41-60%) |
| CCON=Cc1cn(Cc2ncn(C)n2)c(-c2cnc(Cl)c(F)c2)n1 [Compound 1.172] | 2 (2=21-40%) | 3 (3=41-60%) | 2 (2=21-40%) | 2 (2=21-40%) | 5 (5=81-100%) | 5 (5=81-100%) | 5 (5=81-100%) | 5 (5=81-100%) |
| Fc1ccc(-c2nc(C(F)(F)F)cn2Cc2ccc(Cl)s2)cc1F [Compound 1.173] | 4 (4=61-80%) | 5 (5=81-100%) | 2 (2=21-40%) | 1 (1=0-20%) | 5 (5=81-100%) | 5 (5=81-100%) | 1 (1=0-20%) | 1 (1=0-20%) |
| Fc1cc(-c2nc(C(F)(F)F)cn2Cc2ccc(Cl)s2)cnc1Cl [Compound 1.174] | 5 (5=81-100%) | 5 (5=81-100%) | 1 (1=0-20%) | 2 (2=21-40%) | 5 (5=81-100%) | 5 (5=81-100%) | 1 (1=0-20%) | 1 (1=0-20%) |
| CS(=O)(=O)c1ccc(-c2nc(C(F)(F)F)cn2Cc2ccc(Cl)s2)cc1 [Compound 1.175] | 4 (4=61-80%) | 4 (4=61-80%) | 1 (1=0-20%) | 2 (2=21-40%) | 4 (4=61-80%) | 5 (5=81-100%) | 2 (2=21-40%) | 1 (1=0-20%) |
| Cc1noc(Cn2cc(C(F)(F)F)nc2-c2ccc(S(C)(=O)=O)cc2)n1 [Compound 1.176] | 1 (1=0-20%) | 1 (1=0-20%) | 1 (1=0-20%) | 1 (1=0-20%) | 1 (1=0-20%) | 1 (1=0-20%) | 1 (1=0-20%) | 1 (1=0-20%) |
| Cc1cc(Cn2cc(C(F)(F)F)nc2-c2ccc(S(C)(=O)=O)cc2)no1 [Compound 1.177] | 5 (5=81-100%) | 5 (5=81-100%) | 3 (3=41-60%) | 5 (5=81-100%) | 5 (5=81-100%) | 5 (5=81-100%) | 5 (5=81-100%) | 5 (5=81-100%) |
| Cc1nnc(Cn2cc(C(F)(F)F)nc2-c2ccc([S+](C)[O-])cc2)s1 (centres unmarked) [Compound 1.178] | 1 (1=0-20%) | 1 (1=0-20%) | 1 (1=0-20%) | 1 (1=0-20%) | 3 (3=41-60%) | 3 (3=41-60%) | 1 (1=0-20%) | 4 (4=61-80%) |
